Laboratory results reported in patent publication US8834841B2, “Imaging agents” (priority 2005, dated 2014).

Experiments:
[1] = test system: A549 Lung Tumor Cells Implanted SC in SCID Mice; experiment: tissue distribution, A549 tumor-bearing SCID mice; format: in vivo
Protocol: (§1) For the in vitro amino acid uptake studies, all cells can be grown to monolayer confluency in T-175 culture flasks [Corning, Corning, N.Y.] (approx. 1×10^8 cells/flask) in Dulbecco's Modified Eagle's Medium (DMEM) [Sigma, St. Louis, Mo.] in a humidified incubator (37° C., 5% CO2/95% air). Media are supplemented with 10% fetal calf serum [Hyclone, Logan, Utah], and antibiotics (10,000 U/ml penicillin and 10 mg/ml streptomycin) (Sigma, St. Louis, Mo.). For tissue culture passage, monolayer cells are detached by gentle trypsinization, resuspended in complete media, and split 1:10 into new T-flasks. Cultures are passaged weekly, and fed fresh media every 2 to 3 days. To initiate tumor growth in SCID mice, 1×10^6 cells are injected s.c. bilaterally into the flanks (inguinal region) of the recipient animals using a 1 ml syringe with a 27 gauge needle. Ex vivo experiments can be performed with animals containing tumors weighing between 500 mg and 1 g, as estimated by caliper measurement (tumor weight=(π/6)*abc, where a, b and c are the tumor length, width and height, respectively). The compounds of the invention are further evaluated for their tumor specificity and selectivity in tumor-bearing animal models. One can evaluate and compare the transport, accumulation and tissue distribution of each compound in these in vivo animal studies. Tissue distribution of the compounds is measured in SCID mice (average weight, 20-25 g) bearing human tumors as follows. The candidate radioligands (20 uCi in 0.4 ml 0.9% NaCl) are injected into the tail vein of tumor-bearing mice. […] Tissues (blood, heart, liver, lungs, kidneys, bone, thyroid, muscle, brain and tumor) are excised, rinsed in saline, and blotted dry. The tissues are weighed, placed into 12×75 mm glass vials, the radioactivity determined with a gamma counter, and the percent dose/gram calculated. Total activities of blood and muscle are calculated by assuming that they account for 7% and 40% of the total body mass, respectively.

[2] = test system: MB468 Breast Tumor Cells Implanted SC in SCID Mice; experiment: tissue distribution, MB468 tumor-bearing SCID mice; format: in vivo
Protocol: as §1

NC1(C(=O)O)CCC1[18F] [Anti-R,S 2-[^18F]FACBC, (R,S) anti-1-amino-2-[^18F]fluorocyclobutyl-1-carboxylic acid]
% Dose/g blood ([1]; 15 Minutes): 3.39 % Dose/g
% Dose/g bone ([1]; 15 Minutes): 2.06 % Dose/g
% Dose/g brain ([1]; 15 Minutes): 0.26 % Dose/g
% Dose/g heart ([1]; 15 Minutes): 2.70 % Dose/g
% Dose/g kidney ([1]; 15 Minutes): 10.11 % Dose/g
% Dose/g liver ([1]; 15 Minutes): 3.15 % Dose/g
% Dose/g lung ([1]; 15 Minutes): 4.23 % Dose/g
% Dose/g muscle ([1]; 15 Minutes): 1.38 % Dose/g
% Dose/g pancreas ([1]; 15 Minutes): 48.45 % Dose/g
% Dose/g spleen ([1]; 15 Minutes): 7.90 % Dose/g
% Dose/g tumor ([1]; 15 Minutes): 5.11 % Dose/g
% Dose/g blood ([1]; 30 Minutes): 2.42 % Dose/g
% Dose/g bone ([1]; 30 Minutes): 1.63 % Dose/g
% Dose/g brain ([1]; 30 Minutes): 0.25 % Dose/g
% Dose/g heart ([1]; 30 Minutes): 2.23 % Dose/g
% Dose/g kidney ([1]; 30 Minutes): 5.47 % Dose/g
% Dose/g liver ([1]; 30 Minutes): 2.70 % Dose/g
% Dose/g lung ([1]; 30 Minutes): 3.03 % Dose/g
% Dose/g muscle ([1]; 30 Minutes): 1.43 % Dose/g
% Dose/g pancreas ([1]; 30 Minutes): 44.17 % Dose/g
% Dose/g spleen ([1]; 30 Minutes): 5.02 % Dose/g
% Dose/g tumor ([1]; 30 Minutes): 4.28 % Dose/g
% Dose/g blood ([1]; 60 Minutes): 1.08 % Dose/g
% Dose/g bone ([1]; 60 Minutes): 1.01 % Dose/g
% Dose/g brain ([1]; 60 Minutes): 0.16 % Dose/g
% Dose/g heart ([1]; 60 Minutes): 1.41 % Dose/g
% Dose/g kidney ([1]; 60 Minutes): 2.24 % Dose/g
% Dose/g liver ([1]; 60 Minutes): 1.46 % Dose/g
% Dose/g lung ([1]; 60 Minutes): 1.40 % Dose/g
% Dose/g muscle ([1]; 60 Minutes): 0.90 % Dose/g
% Dose/g pancreas ([1]; 60 Minutes): 20.63 % Dose/g
% Dose/g spleen ([1]; 60 Minutes): 2.85 % Dose/g
% Dose/g tumor ([1]; 60 Minutes): 3.04 % Dose/g
% Dose/g blood ([1]; 120 Minutes): 0.40 % Dose/g
% Dose/g bone ([1]; 120 Minutes): 0.62 % Dose/g
% Dose/g brain ([1]; 120 Minutes): 0.14 % Dose/g
% Dose/g heart ([1]; 120 Minutes): 0.85 % Dose/g
% Dose/g kidney ([1]; 120 Minutes): 1.02 % Dose/g
% Dose/g liver ([1]; 120 Minutes): 0.58 % Dose/g
% Dose/g lung ([1]; 120 Minutes): 0.56 % Dose/g
% Dose/g muscle ([1]; 120 Minutes): 0.77 % Dose/g
% Dose/g pancreas ([1]; 120 Minutes): 9.80 % Dose/g
% Dose/g spleen ([1]; 120 Minutes): 1.48 % Dose/g
% Dose/g tumor ([1]; 120 Minutes): 2.30 % Dose/g
% Dose/g blood ([2]; 15 Minutes): 3.26 % Dose/g
% Dose/g bone ([2]; 15 Minutes): 1.46 % Dose/g
% Dose/g brain ([2]; 15 Minutes): 0.23 % Dose/g
% Dose/g heart ([2]; 15 Minutes): 2.21 % Dose/g
% Dose/g kidney ([2]; 15 Minutes): 8.62 % Dose/g
% Dose/g liver ([2]; 15 Minutes): 2.51 % Dose/g
% Dose/g lung ([2]; 15 Minutes): 4.02 % Dose/g
% Dose/g muscle ([2]; 15 Minutes): 1.29 % Dose/g
% Dose/g pancreas ([2]; 15 Minutes): 36.85 % Dose/g
% Dose/g spleen ([2]; 15 Minutes): 4.47 % Dose/g
% Dose/g tumor ([2]; 15 Minutes): 2.71 % Dose/g
% Dose/g blood ([2]; 30 Minutes): 2.39 % Dose/g
% Dose/g bone ([2]; 30 Minutes): 1.31 % Dose/g
% Dose/g brain ([2]; 30 Minutes): 0.20 % Dose/g
% Dose/g heart ([2]; 30 Minutes): 1.89 % Dose/g
% Dose/g kidney ([2]; 30 Minutes): 6.49 % Dose/g
% Dose/g liver ([2]; 30 Minutes): 2.49 % Dose/g
% Dose/g lung ([2]; 30 Minutes): 2.98 % Dose/g
% Dose/g muscle ([2]; 30 Minutes): 1.12 % Dose/g
% Dose/g pancreas ([2]; 30 Minutes): 35.25 % Dose/g
% Dose/g spleen ([2]; 30 Minutes): 4.11 % Dose/g
% Dose/g tumor ([2]; 30 Minutes): 2.83 % Dose/g
% Dose/g blood ([2]; 60 Minutes): 1.00 % Dose/g
% Dose/g bone ([2]; 60 Minutes): 0.92 % Dose/g
% Dose/g brain ([2]; 60 Minutes): 0.15 % Dose/g
% Dose/g heart ([2]; 60 Minutes): 1.27 % Dose/g
% Dose/g kidney ([2]; 60 Minutes): 2.41 % Dose/g
% Dose/g liver ([2]; 60 Minutes): 1.29 % Dose/g
% Dose/g lung ([2]; 60 Minutes): 1.37 % Dose/g
% Dose/g muscle ([2]; 60 Minutes): 1.07 % Dose/g
% Dose/g pancreas ([2]; 60 Minutes): 19.20 % Dose/g
% Dose/g spleen ([2]; 60 Minutes): 3.05 % Dose/g
% Dose/g tumor ([2]; 60 Minutes): 2.19 % Dose/g
% Dose/g blood ([2]; 120 Minutes): 0.35 % Dose/g
% Dose/g bone ([2]; 120 Minutes): 0.71 % Dose/g
% Dose/g brain ([2]; 120 Minutes): 0.13 % Dose/g
% Dose/g heart ([2]; 120 Minutes): 0.69 % Dose/g
% Dose/g kidney ([2]; 120 Minutes): 0.89 % Dose/g
% Dose/g liver ([2]; 120 Minutes): 0.56 % Dose/g
% Dose/g lung ([2]; 120 Minutes): 0.51 % Dose/g
% Dose/g muscle ([2]; 120 Minutes): 0.66 % Dose/g
% Dose/g pancreas ([2]; 120 Minutes): 7.96 % Dose/g
% Dose/g spleen ([2]; 120 Minutes): 1.01 % Dose/g
% Dose/g tumor ([2]; 120 Minutes): 1.44 % Dose/g
